Results reported in article PMC9230201, “Sustained Consumption of a Decaffeinated Green Coffee Nutraceutical Has Limited Effects on Phenolic Metabolism and Bioavailability in Overweight/Obese Subjects” (Nutrients, 2022).
Values joined by “and” are separate entries in the source; they are usually repeats but may differ in a detail not shown here. Equal values may be shown once.

Experiments:
[1] = Fecal excretion of phenolic metabolites after intake of the GCPE nutraceutical; conditions: feces
Description: (§1) Participants attended the Human Nutrition Unit (HNU) at the Institute of Food Science, Technology and Nutrition (ICTAN-CSIC) on two consecutive days at the beginning of the intervention (week 0) and also on two consecutive days at the end of the study, after consuming daily two doses of the GCPE nutraceutical, providing 600 mg/d phenols, during two months (week 8). […] A licensed health care professional placed an intravenous catheter in the subjects′ nondominant arm and collected a fasting blood sample (baseline, 0 h). Then, subjects drank the soluble GCPE nutraceutical dissolved in 200 mL of water. […] On the sampling days, volunteers remained at the HNU, where a (poly)phenol-free diet was provided. Half an hour after consuming the nutraceutical, volunteers ate a breakfast consisting of ham, cheese, white bread, and a yogurt. Lunch (paella, bread, and yogurt) and an afternoon snack (muffin and yogurt) were eaten 5 and 9 h, respectively, after consuming the nutraceutical. Water and isotonic beverages were freely available. […] The same protocol was followed during visits at the end of the 8-week intervention. On each occasion, two days before each visit to the HNU, subjects consumed a low (poly)phenol diet free of foods containing hydroxycinnamates such as coffee, herbal teas, red wine, artichokes, whole grain cereals, vegetables, fruits and fruit juices, and dried fruits. Only banana, watermelon, cantaloupes, and potatoes were allowed.
(§2) Blood samples were immediately centrifuged (10 min, 3000 rpm, 4 °C) to obtain plasma. […] All biological samples were stored at −80 °C until analysis.
(§3) To extract plasma metabolites, 10 µL of 50% (v/v) aqueous formic acid, and 900 µL cold acetonitrile containing 50 µL of 10% (w/v) ascorbic acid were added to 400 µL defrosted plasma. Samples were vortexed and centrifuged (14,000 rpm, 10 min, 4 °C), repeating the extraction and combining the two supernatants, which were reduced to dryness under nitrogen [13]. Dried samples were resuspended in 150 µL of 0.1% aqueous formic acid (containing 10% acetonitrile acidified with 0.1% formic acid), centrifuged (15 min, 14,000 rpm, 4 °C), and the supernatant collected. Urine samples were diluted 1:1 with Milli-Q water and centrifuged (14,000 rpm, 20 min, 4 °C) prior to analysis. Phosphate-buffered saline (3 mL) was added to a representative 300 mg sample of thawed feces, homogenized in an ultrasound bath during 10 min, centrifuged (14,000 rpm, 20 min, 4 °C), and the supernatants collected.
(§4) Mobile phase A was 0.1% formic acid in Milli-Q water, and mobile phase B was acetonitrile containing 0.1% formic acid at a 0.3 mL/min flow rate. […] Metabolites were identified based on their retention time using authentic standards when possible. […] Urine concentration of excreted metabolites was normalized to the total volume excreted in each studied interval.
(§5) Plasma (30 µL), urine (5 µL) and fecal extracts (5 µL) were filtered through 0.45 µm
(§6) cellulose-acetate membrane filters and injected into an Agilent 1200 series LC system
(§7) ESI-Jet Stream Technology (Agilent Technologies). A reverse-phase Ascentis Express
(§8) C18 (15 cm x 3 mm, 2.7 µm) column (Sigma-Aldrich Quimica, Madrid), preceded by a
(§9) phase A was 0.1% formic acid in Milli-Q water, and mobile phase B was acetonitrile
(§10) containing 0.1% formic acid at a 0.3 mL/min flow rate. The gradient started with 10% B
(§11) at 0 min, 30% B at 10 min, 40% B at 15 min, reaching 50% B at 20 min. The starting
(§12) gradient was then re-established in 2 min and maintained for 8 min to re-equilibrate the

[2] = Urinary excretion of phenolic metabolites after intake of the GCPE nutraceutical; conditions: for Cumulative urinary excretion, Total 0–24 h / Urinary excretion: urine; for Cumulative urinary excretion, Total 0–24 h: mean ± SEM, n = 9
Description: as §1, §2, §3, §4, §5, §6, §7, §8, §9, §10, §11, §12

[3] = Plasma pharmacokinetics of phenolic metabolites after intake of the GCPE nutraceutical (LC-MS-QToF); conditions: for AUC(0-t): AUC0–24h; for Tmax: Tmax (h) or Range
Description: Participants attended the Human Nutrition Unit (HNU) at the Institute of Food Science, Technology and Nutrition (ICTAN-CSIC) on two consecutive days at the beginning of the intervention (week 0) and also on two consecutive days at the end of the study, after consuming daily two doses of the GCPE nutraceutical, providing 600 mg/d phenols, during two months (week 8). On each occasion, on the first visit day (Figure 1), subjects arrived at the HNU after an overnight (12 h) fast and provided a urine sample. A licensed health care professional placed an intravenous catheter in the subjects′ nondominant arm and collected a fasting blood sample (baseline, 0 h). Then, subjects drank the soluble GCPE nutraceutical dissolved in 200 mL of water. Subsequently, blood samples were collected in EDTA-coated tubes at 0.5, 1, 1.5, 2, 3, 4, 6, 8, 10, and 11 h. On the sampling days, volunteers remained at the HNU, where a (poly)phenol-free diet was provided. Half an hour after consuming the nutraceutical, volunteers ate a breakfast consisting of ham, cheese, white bread, and a yogurt. Lunch (paella, bread, and yogurt) and an afternoon snack (muffin and yogurt) were eaten 5 and 9 h, respectively, after consuming the nutraceutical. Water and isotonic beverages were freely available. Volunteers were instructed to eat a (poly)phenol-free dinner that night and to attend the HNU on the next day after a 12 h fast. Then, a final blood sample was obtained from the antecubital vein 24 h after consuming the nutraceutical. The same protocol was followed during visits at the end of the 8-week intervention. On each occasion, two days before each visit to the HNU, subjects consumed a low (poly)phenol diet free of foods containing hydroxycinnamates such as coffee, herbal teas, red wine, artichokes, whole grain cereals, vegetables, fruits and fruit juices, and dried fruits. Only banana, watermelon, cantaloupes, and potatoes were allowed.
as §2
To extract plasma metabolites, 10 µL of 50% (v/v) aqueous formic acid, and 900 µL cold acetonitrile containing 50 µL of 10% (w/v) ascorbic acid were added to 400 µL defrosted plasma. Samples were vortexed and centrifuged (14,000 rpm, 10 min, 4 °C), repeating the extraction and combining the two supernatants, which were reduced to dryness under nitrogen [13]. Dried samples were resuspended in 150 µL of 0.1% aqueous formic acid (containing 10% acetonitrile acidified with 0.1% formic acid), centrifuged (15 min, 14,000 rpm, 4 °C), and the supernatant collected.
A reverse-phase Ascentis Express C18 (15 cm × 3 mm, 2.7 µm) column (Sigma-Aldrich Quimica, Madrid, Spain), preceded by a Supelco 55215-U guard column (3 mm × 5 mm, 2.7 µm), was used for separation. Mobile phase A was 0.1% formic acid in Milli-Q water, and mobile phase B was acetonitrile containing 0.1% formic acid at a 0.3 mL/min flow rate. […] Metabolites were identified based on their retention time using authentic standards when possible.

[4] = human, oral, 300 mg hydroxycinnamic acids, week 0
[5] = human, oral, 300 mg hydroxycinnamic acids, week 8
[6] = human, oral, 300 mg hydroxycinnamic acids, week 0, first peak where biphasic
[7] = human, oral, 300 mg hydroxycinnamic acids, week 8, first peak where biphasic
[8] = human, oral, 300 mg, Cmax, week 0, GCPE nutraceutical with 300 mg hydroxycinnamic acids, mean ± SEM, n = 9
[9] = human, oral, 300 mg, Cmax, week 8, GCPE nutraceutical with 300 mg hydroxycinnamic acids, mean ± SEM, n = 9
[10] = week 0, GCPE nutraceutical with 300 mg hydroxycinnamic acids, mean ± SEM, n = 9
[11] = week 0, first peak where biphasic
[12] = week 8, GCPE nutraceutical with 300 mg hydroxycinnamic acids, mean ± SEM, n = 9
[13] = week 8, first peak where biphasic

Row | Amount of fecal metabolite excreted at 0 h ([1]; week 0, mean ± SEM, n = 9) | Amount of fecal metabolite excreted at 0 h ([1]; week 8) | Amount of fecal metabolite excreted at 24 h ([1]; week 0) [µmol/g] | Amount of fecal metabolite excreted at 24 h ([1]; week 8) [µmol/g] | Cumulative urinary excretion, Total 0–24 h ([2]; week 0) | Cumulative urinary excretion, Total 0–24 h ([2]; week 8) | Amount excreted in urine, 0- 3 h ([2]; week 0, interval 0–3 h) [µmol] | Amount excreted in urine, 3-6 h ([2]; week 0, interval 3–6 h) [µmol] | Amount excreted in urine, 6-9 h ([2]; week 0, interval 6–9 h) [µmol] | Amount excreted in urine, 9-11 h ([2]; week 0, interval 9–11 h) [µmol] | Amount excreted in urine, 11-24 h ([2]; week 0, interval 11–24 h) [µmol] | Amount excreted in urine, 0- 3 h ([2]; week 8, interval 0–3 h) [µmol] | Amount excreted in urine, 3-6 h ([2]; week 8, interval 3–6 h) [µmol] | Amount excreted in urine, 6-9 h ([2]; week 8, interval 6–9 h) [µmol] | Amount excreted in urine, 9-11 h ([2]; week 8, interval 9–11 h) [µmol] | Amount excreted in urine, 11-24 h ([2]; week 8, interval 11–24 h) [µmol] | SMILES | AUC0–24h ([3]; week 0) [µM/min] | Cmax [3, 10] | Tmax (h) or Range [3, 11] [h] | AUC0–24h ([3]; week 8) [µM/min] | further results
1 | 0.016 ± 0.006 µmol/g | 0.026 ± 0.008 µmol/g | 0.018 ± 0.005 | 0.04 ± 0.01 | 0.13 ± 0.02 µmol | 0.18 ± 0.04 µmol | 0.016 ± 0.005 | 0.007 ± 0.003 | 0.017 ± 0.005 | 0.018 ± 0.006 | 0.035 ± 0.009 | 0.03 ± 0.01 | 0.014 ± 0.003 | 0.027 ± 0.007 | 0.018 ± 0.007 | 0.03 ± 0.009 | O=C(O)c1ccc(O)c(O)c1 [3,4-Dihydroxybenzoic acid] | – | – | – | – | Amount of fecal metabolite excreted at 0 h ([1]; week 0, mean ± SEM, n = 9, listed as 3,4-dihydroxybenzoic acid): 0.016 µmol/g; Amount of fecal metabolite excreted at 0 h ([1]; week 8, listed as 3,4-dihydroxybenzoic acid): 0.026 µmol/g
2 | 0.003 ± 0.003 µmol/g | 0.0010 ± 0.0007 µmol/g | 0.003 ± 0.003 | 0.003 ± 0.002 | 0.29 ± 0.07 µmol | 0.34 ± 0.07 µmol | 0.15 ± 0.04 | 0.1 ± 0.04 | 0.021 ± 0.006 | 0.007 ± 0.004 | 0.01 ± 0.005 | 0.19 ± 0.04 | 0.08 ± 0.02 | 0.05 ± 0.01 | 0.014 ± 0.008 | 0.015 ± 0.007 | COc1cc(/C=C/C(=O)O[C@@H]2C[C@@](O)(C(=O)O)C[C@@H](O)[C@@H]2O)ccc1O [3-Feruloylquinic acid] | – | – | – | – | –
3 | – | – | – | 0.010 ± 0.008 | 1.2 ± 0.2 µmol | 1.3 ± 0.2 µmol | 0.12 ± 0.03 | 0.08 ± 0.03 | 0.11 ± 0.05 | 0.06 ± 0.02 | 0.38 ± 0.04 | 0.15 ± 0.03 | 0.05 ± 0.02 | 0.08 ± 0.02 | 0.09 ± 0.03 | 0.31 ± 0.03 | O=C(O)Cc1ccc(O)c(O)c1 [3′,4′-Dihydroxyphenylacetic acid] | – | – | – | – | –
4 | – | 0.006 ± 0.004 µmol/g | 0.002 ± 0.002 | 0.003 ± 0.001 | – | – | – | – | – | – | – | – | – | – | – | – | O=C(O)/C=C/c1ccc(O)cc1 [CoA, 4′-Hydroxycinnamic acid] | – | – | – | – | –
5 | 0.21 µmol/g and 0.21 ± 0.07 µmol/g | 0.4 µmol/g and 0.4 ± 0.1 µmol/g | 0.24 ± 0.07 | 0.25 ± 0.07 | – | – | – | – | – | – | – | – | – | – | – | – | O=C(O)CCc1cccc(O)c1 [DHiCoA, 3-(3′-Hydroxyphenyl)propanoic acid] | – | – | – | – | –
6 | – | – | – | – | 0.7 ± 0.2 µmol | 0.63 ± 0.08 µmol | 0.08 ± 0.02 | 0.08 ± 0.01 | 0.2 ± 0.1 | 0.09 ± 0.02 | 0.27 ± 0.06 | 0.08 ± 0.01 | 0.06 ± 0.01 | 0.12 ± 0.03 | 0.12 ± 0.04 | 0.25 ± 0.05 | COc1ccc(CCC(=O)O)cc1OC [Dihydrodimethoxycinnamic acid, 3-(3′,4′-Dimethoxyphenyl)propanoic acid] | – | – | – | – | AUC(0-t) [3, 4]: 1.2 ± 0.1 µM·h; AUC(0-t) [3, 5]: 1.3 ± 0.1 µM·h; Tmax [3, 6]: 4 ± 1 h; Tmax [3, 7]: 10 ± 4 h; Cmax [3, 8]: 110 ± 20 nM; Cmax [3, 9]: 120 ± 10 nM
7 | – | – | – | – | 3.4 ± 0.4 µmol | 3.7 ± 0.5 µmol | 0.5 ± 0.1 | 0.42 ± 0.07 | 0.7 ± 0.2 | 0.44 ± 0.09 | 1.3 ± 0.3 | 0.6 ± 0.1 | 0.37 ± 0.05 | 0.8 ± 0.1 | 0.8 ± 0.3 | 1.3 ± 0.2 | COc1cc(C=CC(=O)O)ccc1OC1OC(C(=O)O)C(O)C(O)C1O (stereo not shown) [FA-4′-glucuronide, 3′-Methoxycinnamic acid-4′-glucuronide] | 0.06 ± 0.01 | 16 ± 9 nM | 1.2 ± 0.3 | 0.063 ± 0.02 | Tmax, second peak ([3]; week 0, biphasic profile): 4.7 ± 0.3 h; Cmax [3, 12]: 9 ± 2 nM; Tmax (h) or Range [3, 13]: 1.2 ± 0.3 h
8 | – | – | – | – | 32 µmol and 32 ± 5 µmol | 33 µmol and 33 ± 5 µmol | 5 ± 2 | 3.2 ± 0.9 | 7 ± 2 | 3.6 ± 0.7 | 13 ± 2 | 4 ± 2 | 3.4 ± 0.7 | 7 ± 1 | 7 ± 2 | 11 ± 2 | COc1cc(C=CC(=O)O)ccc1OS(=O)(=O)O [FA-4′-sulfate, 3′-Methoxycinnamic acid-4′-sulfate] | 0.11 ± 0.03 | 17 ± 4 nM | 0.78 ± 0.09 | 0.13 ± 0.02 | Urinary excretion ([2]; week 0): 32 µmol/24 h; Urinary excretion ([2]; week 8): 33 µmol/24 h; Tmax, second peak ([3]; week 0, biphasic profile): 6.8 ± 0.7 h; Cmax [3, 12]: 17 ± 4 nM; Tmax, second peak ([3]; week 8, biphasic profile): 7.2 ± 0.6 h; Tmax (h) or Range [3, 13]: 0.56 ± 0.06 h
9 | – | – | – | – | 19 ± 5 µmol | 25 ± 5 µmol | 1 ± 0.2 | 0.9 ± 0.3 | 4 ± 1 | 2.6 ± 0.9 | 3.9 ± 0.9 | 1 ± 0.3 | 1.2 ± 0.3 | 3 ± 1 | 3 ± 1 | 3 ± 1 | COc1cc(/C=C/C(=O)NCC(=O)O)ccc1O [Feruloylglycine] | 0.029 ± 0.007 | Traces ^b | 7 ± 1 | 0.026 ± 0.004 | Cumulative urinary excretion, Total 0–24 h ([2]; week 0, listed as feruloylglycine): 19 µmol; Cumulative urinary excretion, Total 0–24 h ([2]; week 8, listed as feruloylglycine): 25 µmol; Amount excreted in urine, TOTAL ([2]; week 0, Table S5 total): 19 ± 5 µmol; Amount excreted in urine, 0 h ([2]; week 8, 0 h (before intake on sampling day)): 14 ± 4 µmol; Amount excreted in urine, TOTAL ([2]; week 8, Table S6 total): 25 ± 5 µmol; Cmax [3, 12]: Traces ^b; Tmax (h) or Range [3, 13]: 8.4 ± 0.6 h; Cmax ([3]; weeks 0 and 8 not distinguished): trace levels
10 | – | – | – | – | 1.7 ± 0.2 µmol | 2.1 ± 0.2 µmol | 1 ± 0.2 | 0.35 ± 0.07 | 0.27 ± 0.07 | 0.04 ± 0.03 | 0.04 ± 0.02 | 1.2 ± 0.2 | 0.32 ± 0.04 | 0.39 ± 0.07 | 0.13 ± 0.07 | 0.09 ± 0.04 | COc1ccc(/C=C/C(=O)O)cc1O [iFA, 3′-Hydroxy-4′-methoxycinnamic acid] | – | – | – | – | AUC(0-t) [3, 4]: 0.025 ± 0.007 µM·h; AUC(0-t) [3, 5]: 0.043 ± 0.008 µM·h; Tmax [3, 6]: 0.5 ± 0.1 h; Tmax [3, 7]: 0.5 h; AUC(0-t) ([3]; human, oral, 300 mg phenols, week 0): 0.025 µM·h; AUC(0-t) ([3]; human, oral, 300 mg phenols, week 8): 0.043 µM·h; Cmax [3, 8]: 23 ± 6 nM; Cmax [3, 9]: 32 ± 7 nM
